How the values were obtained:
Bead-activated PBMCs = experiment: Payload gene order: 2A detection, rapamycin enrichment and expansion of CAR-T cells; format: cell-based; conditions: by day 22; 10 nM rapamycin
Method: The aim of this study was to determine the effect of order on the detectability and function of a lentiviral payload comprised of the following functional elements: Frb-RACR, and αCD19-CAR. The Frb-RACR element provides a selective advantage to cells when rapamycin is added to the culture. The αCD19-CAR element provides targeting of T cells to CD19+ target cells. The two elements together create CAR-T cells that enrich with rapamycin and are cytotoxic to CD19+ target cells. Two payload designs evaluated differ only in the order in which elements are expressed in the polycistronic transcript. This study tested functional aspects of the payloads in both orientations to see if differences in expression were affecting 1) payload detection by flow cytometry (2A antibody), 2) CAR-T cell rapamycin response, and 3) CAR-T cell CD19+ cell cytotoxicity.
Two payload designs evaluated: • 1. MND promoter—FRB-P2A-RACRβ-P2A-RACRγ-P2A-CAR (SEQ ID NO: 81) • 2. MND promoter—CAR-P2A-FRB-P2A-RACRβ-P2A-RACRγ (SEQ ID NO: 61)
Expansion of CAR-T cells was measured using cell counts, culture volume, and flow cytometry population frequencies to estimate total CAR-T cells. Gating requirements were different for d15 and 22; however, in each case, un-transduced cells were used as a biological negative control. […]

Nalm-6 GFP FFLUC cells = experiment: Nalm-6 systemic tumor model in PBMC-humanized mice; parameters: species or system MHC I/II KO NSG female mice; conditions: mouse, in vivo
Method: The aim of this study is to evaluate the efficacy of UB-VV100 and the effects of rapamycin dosing after UB-VV100 administration in a Nalm-6 systemic tumor model in PBMC-humanized mice. The UB-VV100 Viral particles comprised SEQ ID NOs: 121, 128, 131, and 132.
Lentivirus was prepared using adherent production and tiered on 293T cells by flow cytometry. Nalm-6 GFP FFLUC cells expressing luciferase and GFP were obtained from the Jensen lab, SCRI, cultured by Umoja Biopharma, and delivered in PBS for injection.
24 MHC I/II KO NSG female mice were used in the study. On study day −5 (D-5) mice were implanted with 0.5 million Nalm-6 cells via retroorbital injection.
At study day −1 mice where humanized with 10 million PBMC via IP injection. The same day all mice were imaged with an IVIS imager 15 minutes after d-Luciferin injection (15 mg/kg) to detect Nalm-6 disease burden. All mice from each tumor group were randomized according to their tumor bioluminescence (Total Flux) levels into 4 cohorts according to the Table 8 below.
At study day 0 mice from groups 3 and 4 were treated IP with 20 million viral particles of UB-VV100 in 500 ul of PBS. […]
Percentage of body weight loss was monitored during the study (FIG. 34B). […] Bone marrow, spleen, peripheral blood and tumor were collected, processed into a single cell suspension, and analyzed by flow cytometry.

unstimulated human PBMCs = experiment: T cell activation (CD25) in PBMCs after vector addition, flow cytometry; format: cell-based; conditions: 4 days after transduction; VT103 mCherry vectors 5 ul or 25 ul; Blinatumomab 1 ng/ml
Method: PBMCs were thawed, resuspended into 10 ml RPMI complete media, and the PBMCs were diluted to 1e6 cells/ml in complete RPMI media. IL-2 was added to a final concentration of 50U/ml. PBMCs were separated into 3× groups of 15 ml each for various stimulations: • Group #1—Blinatumomab added to a final concentration of 1 ng/ml • Group #2-15e6 αCD3/αCD28 Dynabeads added • Group #3—IL-2 only
For each group, 5 ml of stimulation solution was added to 3× wells of Non-TC treated 6 well plate and incubated at 37° C. for 48 hours. Beads were removed from applicable wells, cells were counted and pelleted. Cells were then resuspended in fresh complete RPMI media at 1e6 cells/ml with IL-2 at a final concentration of 50U/ml. 1 ml (1e6 cells) was added to the wells of a Non TC-treated 12 well plate. […]
After 4 days, cells were resuspended with 200 ul into wells in a 96 well V-bottom plate. […] Cells were resuspended in 50 ul of surface antibody cocktail (Anti-CD3-PerCP, Anti-CD19-FITC, Anti-CD56-APC, and Anti-CD25-BV421), incubated for 20 min at 4° C., washed in 200 ul FACS buffer, and resuspended in 100 ul FACS buffer and analyzed by flow cytometry. […]
(§1) Each group was incubated at 37° C. overnight. Beads were removed from applicable wells, cells were counted and pelleted. […]
as §1

| Compound | expansion of αCD19-CAR-T cells over non-rapamycin treated cells (Bead-activated PBMCs) | survival (Nalm-6 GFP FFLUC cells) | CD25 expression on T cells (activation) (unstimulated human PBMCs) |
| --- | --- | --- | --- |
| CO[C@H]1C[C@@H]2CC[C@@H](C)[C@@](O)(O2)C(=O)C(=O)N2CCCC[C@H]2C(=O)O[C@H]([C@H](C)C[C@@H]2CC[C@@H](O)[C@H](OC)C2)CC(=O)[C@H](C)/C=C(\C)[C@@H](O)[C@@H](OC)C(=O)[C@H](C)C[C@H](C)/C=C/C=C/C=C/1C [rapamycin] | 4.3 fold | ≤ 20 study day |  |
| Blinatumomab: Bispecific T-cell engager with anti-CD3 moiety, used as PBMC stimulus |  |  | potently activated the T cells |

Reference: US20240141375A1, “LENTIVIRUS FOR GENERATING CELLS EXPRESSING ANTI-CD19 CHIMERIC ANTIGEN RECEPTOR” (Umoja Biopharma, Inc., priority 2021, published 2024)
